Reference: patent US20090062361A1, “THERAPEUTIC HYDANTOINS” (ALLERGAN, INC., priority 2007, published 2009)

Tests used:
normotensive dogs = assay: Intraocular pressure and ocular surface hyperemia in normotensive dogs; type: in vivo; settings: 0.003%, once daily for 5 days
Method: (§1) U.S. Pat. No. 7,091,231 describes the methods used to carry out the tests reported below.
(§2) Isopropyl 5-(3-(3-(4-(1-hydroxyhexyl)phenyl)-2,5-dioxoimidazolidin-4-yl)propyl)thiophene-2-carboxylate (31) was tested in normotensive dogs at 0.003%, dosing once daily for 5 days. The maximum intraocular pressure (IOP) decrease from baseline was 7.7 mmHg (45%) at 102 h; the maximum ocular surface hyperemia (OSH) score was 2.5 at 26 h. This compound was also tested in laser-induced hypertensive monkeys, using one single day dose. At 0.003%, the maximum IOP decrease from baseline was 23 mmHg (53%) at 24 h.
(§3) Isopropyl 5-(3-(3-(4-hexanoylphenyl)-2,5-dioxoimidazolidin-4-yl)propyl)thiophene-2-carboxylate (32) was tested in normotensive dogs at 0.003%, dosing once daily for 5 days. The maximum intraocular pressure (IOP) decrease from baseline was 8.9 mmHg (48%) at 54 h; the maximum ocular surface hyperemia (OSH) score was 2.3 at 54 h. This compound was also tested in laser-induced hypertensive monkeys, using one single day dose. At 0.003%, the maximum IOP decrease from baseline was 19 mmHg (49%) at 24 h.

[1] = test system: laser-induced hypertensive monkeys; assay: Intraocular pressure in laser-induced hypertensive monkeys; type: in vivo; settings: 0.003%, one single day dose, at 24 h
Method: as §1, §2, §3

EP2 [2] = molecular target: T1, EP2 (Homo sapiens, UniProt P43116); assay: EP2 flipr functional assay; type: cell-based
Text: (§4) United States Patent Application Publication No. 20070129552, incorporated by reference herein, describes the methods used to obtain the in vitro data in the table below.

EP2 [3] = molecular target: T1, EP2; assay: EP2 binding (Ki)
Text: as §4

EP4 [4] = molecular target: T2, EP4 (Homo sapiens, UniProt P35408); assay: EP4 flipr functional assay; type: cell-based
Text: as §4

EP4 [5] = molecular target: T2, EP4; assay: EP4 binding (KI)
Text: as §4

hEP3A = molecular target: T3, hEP3A (Homo sapiens, UniProt P43115); assay: Other receptors functional assay, hEP3A; type: cell-based
T3 sequence (P43115 1-390): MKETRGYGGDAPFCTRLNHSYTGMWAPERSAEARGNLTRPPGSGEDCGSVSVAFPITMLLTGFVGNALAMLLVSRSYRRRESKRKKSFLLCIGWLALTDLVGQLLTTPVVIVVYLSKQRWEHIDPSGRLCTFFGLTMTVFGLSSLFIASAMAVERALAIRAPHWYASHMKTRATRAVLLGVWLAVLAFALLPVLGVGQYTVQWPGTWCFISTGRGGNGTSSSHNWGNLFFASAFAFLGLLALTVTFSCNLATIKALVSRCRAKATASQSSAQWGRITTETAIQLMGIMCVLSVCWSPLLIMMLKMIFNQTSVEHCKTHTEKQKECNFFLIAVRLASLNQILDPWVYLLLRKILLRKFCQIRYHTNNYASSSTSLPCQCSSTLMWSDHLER
Text: as §4

hDP = molecular target: T4, hDP (Homo sapiens, UniProt Q13258); assay: Other receptors functional assay, hDP; type: cell-based
T4 sequence (Q13258 1-359): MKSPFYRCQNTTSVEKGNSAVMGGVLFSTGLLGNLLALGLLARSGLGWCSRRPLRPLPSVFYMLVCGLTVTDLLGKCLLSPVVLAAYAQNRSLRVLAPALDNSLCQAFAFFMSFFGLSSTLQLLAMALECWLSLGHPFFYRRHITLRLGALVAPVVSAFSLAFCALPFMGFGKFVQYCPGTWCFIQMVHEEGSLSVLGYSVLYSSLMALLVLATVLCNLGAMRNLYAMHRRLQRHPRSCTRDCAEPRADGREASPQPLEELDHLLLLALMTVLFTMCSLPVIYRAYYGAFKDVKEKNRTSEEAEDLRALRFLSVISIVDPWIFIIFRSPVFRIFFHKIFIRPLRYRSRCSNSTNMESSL
Text: as §4

T1 sequence (P43116 whole entry): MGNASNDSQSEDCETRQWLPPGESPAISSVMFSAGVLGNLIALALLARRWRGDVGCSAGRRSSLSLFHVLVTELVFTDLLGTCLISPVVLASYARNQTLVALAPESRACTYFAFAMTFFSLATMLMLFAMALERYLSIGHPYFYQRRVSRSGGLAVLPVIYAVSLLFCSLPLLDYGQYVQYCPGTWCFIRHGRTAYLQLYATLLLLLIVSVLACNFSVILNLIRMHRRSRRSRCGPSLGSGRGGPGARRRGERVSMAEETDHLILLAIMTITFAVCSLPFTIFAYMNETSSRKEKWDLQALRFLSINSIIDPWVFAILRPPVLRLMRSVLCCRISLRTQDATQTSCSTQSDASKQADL
T2 sequence (P35408 whole entry): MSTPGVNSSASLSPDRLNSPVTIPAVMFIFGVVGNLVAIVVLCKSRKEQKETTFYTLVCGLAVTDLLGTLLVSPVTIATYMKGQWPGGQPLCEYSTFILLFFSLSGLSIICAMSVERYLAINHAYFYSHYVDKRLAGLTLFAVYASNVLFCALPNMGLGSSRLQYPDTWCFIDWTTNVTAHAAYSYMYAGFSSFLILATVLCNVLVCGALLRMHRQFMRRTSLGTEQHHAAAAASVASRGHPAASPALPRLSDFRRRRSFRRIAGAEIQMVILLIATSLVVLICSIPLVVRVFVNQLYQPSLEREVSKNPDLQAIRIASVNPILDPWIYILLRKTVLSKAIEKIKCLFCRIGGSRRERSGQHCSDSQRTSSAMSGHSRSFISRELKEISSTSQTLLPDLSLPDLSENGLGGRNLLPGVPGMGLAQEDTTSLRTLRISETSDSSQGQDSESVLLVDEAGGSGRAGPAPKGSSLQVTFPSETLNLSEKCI

Compound | maximum ocular surface hyperemia (OSH) score (normotensive dogs; at 26 h) | maximum intraocular pressure (IOP) decrease from baseline (normotensive dogs; at 102 h) | maximum intraocular pressure (IOP) decrease from baseline (percent) (normotensive dogs; at 102 h) | maximum IOP decrease from baseline [1] | maximum IOP decrease from baseline (percent) [1] | EC50 (EP2 [2]) | Ki (EP2 [3]) | EC50 (EP4 [4]) | Ki (EP4 [5]) | EC50 (hEP3A) | EC50 (hDP) | maximum intraocular pressure (IOP) decrease from baseline (normotensive dogs; at 54 h) | maximum intraocular pressure (IOP) decrease from baseline (percent) (normotensive dogs; at 54 h) | maximum ocular surface hyperemia (OSH) score (normotensive dogs; at 54 h)
CCCCCC(O)c1ccc(N2C(=O)NC(=O)C2CCCc2ccc(C(=O)OC(C)C)s2)cc1 (stereo not shown) [Example 31, Isopropyl 5-(3-(3-(4-(1-hydroxyhexyl)phenyl)-2,5-dioxoimidazolidin-4-yl)propyl)thiophene-2-carboxylate] | 2.5 | 7.7 mmHg | 45% | 23 mmHg | 53% | – | – | – | – | – | – | – | – | –
CCCCCC(=O)c1ccc(N2C(=O)NC(=O)C2CCCc2ccc(C(=O)O)s2)cc1 (stereo not shown) [Example 1, 5-(3-(3-(4-hexanoylphenyl)-2,5-dioxoimidazolidin-4-yl)propyl)thiophene-2-carboxylic acid] | – | – | – | – | – | 17 nM | 4.5 nM | 17500 nM | 3240 nM | 131 nM | 8810 nM | – | – | –
CCCCC[C@H](O)c1ccc(N2C(=O)NC(=O)[C@H]2CCCc2ccc(C(=O)O)s2)cc1 [Example 8, 5-(3-((R)-3-(4-((S)-1-hydroxyhexyl)phenyl)-2,5-dioxoimidazolidin-4-yl)propyl)thiophene-2-carboxylic acid] | – | – | – | – | – | 23 nM | 4 nM | – | 7190 nM | 29 nM | > 10000 nM | – | – | –
CCCCC[C@@H](O)c1ccc(N2C(=O)NC(=O)[C@@H]2CCCc2ccc(C(=O)O)s2)cc1 [Example 10, 5-(3-((S)-3-(4-((R)-1-hydroxyhexyl)phenyl)-2,5-dioxoimidazolidin-4-yl)propyl)thiophene-2-carboxylic acid] | – | – | – | – | – | 1 nM | 1 nM | 2000 nM | 7210 nM | 15 nM | 19300 nM | – | – | –
CCCCC[C@H](O)c1ccc(N2C(=O)NC(=O)C2CCCc2ccc(C(=O)O)s2)cc1 (stereo in doubt) [Example 2, 5-(3-(3-(4-(1-hydroxyhexyl)phenyl)-2,5-dioxoimidazolidin-4-yl)propyl)thiophene-2-carboxylic acid] | – | – | – | – | – | 3.5 nM | 5 nM | – | > 10000 nM | 10 nM | 17400 nM | – | – | –
CCCCCC(=O)c1ccc(N2C(=O)NC(=O)C2CCCc2ccc(C(=O)OC(C)C)s2)cc1 (stereo not shown) [Example 32, Isopropyl 5-(3-(3-(4-hexanoylphenyl)-2,5-dioxoimidazolidin-4-yl)propyl)thiophene-2-carboxylate] | – | – | – | 19 mmHg | 49% | – | – | – | – | – | – | 8.9 mmHg | 48% | 2.3
CCCCC[C@H](O)c1ccc(N2C(=O)NC(=O)[C@@H]2CCCc2ccc(C(=O)O)s2)cc1 [Example 7, 5-(3-((S)-3-(4-((S)-1-hydroxyhexyl)phenyl)-2,5-dioxoimidazolidin-4-yl)propyl)thiophene-2-carboxylic acid] | – | – | – | – | – | 4 nM | 2 nM | – | 5070 nM | 5 nM | > 10000 nM | – | – | –
